Source: PubChem BioAssay AID1963959 (Molecular Pharmacology Branch, DTP, NCI, 2024)
pIC50: −log10 of the molar value. “And” between values parts separate entries of the source, which are not always exact repeats. Equal entries are not always repeated.

Test system: T-47D spheroids with HUVEC/MSC, viability
Test: Anticancer human tumor T-47D cell line growth inhibition [PI3K];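 also: spheroids exposed to agents for seven days before reading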;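 as to viability, T/C: percent of DMSO vehicle control luminescence so 100% = untreated growth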
Details: for viability, T/C: stronger effect = lower value
Outline: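 Three cell types, namely tumor cells, endothelial cells and mesenchymal stem cells, formed each spheroid. Combinations with four PI3K inhibitors were screened at clinically achievable concentrations decreasing by half-log, and spheroid viability was recorded.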

[1] = curve of first compound, second compound 0.0316 µM
[2] = curve of first compound, second compound 0.1 µM
[3] = curve of first compound, second compound 0.316 µM
[4] = curve of first compound, second compound 1 µM
[5] = curve of first compound, second compound 3.16 µM
[6] = curve of first compound, second compound 10 µM
[7] = second compound 0.0316 µM, first compound 0.0316 µM
[8] = second compound 0.0316 µM, first compound 0.1 µM
[9] = second compound 0.0316 µM, first compound 0.316 µM
[10] = second compound 0.0316 µM, first compound 1 µM
[11] = second compound 0.0316 µM, first compound 3.16 µM
[12] = second compound 0.0316 µM, first compound 10 µM
[13] = second compound 0.1 µM, first compound 0.0316 µM
[14] = second compound 0.1 µM, first compound 0.1 µM
[15] = second compound 0.1 µM, first compound 0.316 µM
[16] = second compound 0.1 µM, first compound 1 µM
[17] = second compound 0.1 µM, first compound 3.16 µM
[18] = second compound 0.1 µM, first compound 10 µM
[19] = second compound 0.316 µM, first compound 0.0316 µM
[20] = second compound 0.316 µM, first compound 0.1 µM
[21] = second compound 0.316 µM, first compound 0.316 µM
[22] = second compound 0.316 µM, first compound 1 µM
[23] = second compound 0.316 µM, first compound 3.16 µM
[24] = second compound 0.316 µM, first compound 10 µM
[25] = second compound 1 µM, first compound 0.0316 µM
[26] = second compound 1 µM, first compound 0.1 µM
[27] = second compound 1 µM, first compound 0.316 µM
[28] = second compound 1 µM, first compound 1 µM
[29] = second compound 1 µM, first compound 3.16 µM
[30] = second compound 1 µM, first compound 10 µM
[31] = second compound 3.16 µM, first compound 0.0316 µM
[32] = second compound 3.16 µM, first compound 0.1 µM
[33] = second compound 3.16 µM, first compound 0.316 µM
[34] = second compound 3.16 µM, first compound 1 µM
[35] = second compound 3.16 µM, first compound 3.16 µM
[36] = second compound 3.16 µM, first compound 10 µM
[37] = second compound 10 µM, first compound 0.0316 µM
[38] = second compound 10 µM, first compound 0.1 µM
[39] = second compound 10 µM, first compound 0.316 µM
[40] = second compound 10 µM, first compound 1 µM
[41] = second compound 10 µM, first compound 3.16 µM
[42] = second compound 10 µM, first compound 10 µM

CC1(C)CCC(Nc2ncc(C(F)(F)F)c(-c3c[nH]c4c(P(C)(C)=O)c(C#N)ccc34)n2)CN1 (stereo unspecified)
viability, T/C (compound 0.0316 µM): 66% (2×) and 68.7% and 70.4% | viability, T/C (compound 0.1 µM): 72% [middle of 4 runs] | viability, T/C (compound 0.316 µM): 69.9% [middle of 4 runs] | viability, T/C (compound 1 µM): 79.7% [middle of 4 runs] | viability, T/C (compound 3.16 µM): 79.9% [middle of 4 runs] | viability, T/C (compound 10 µM): 54.5% (2×) and 54.6% and 58.2% | pIC50 (curve of compound): < 5.00

CNC(=O)c1ccc(N2C(=S)N(c3ccc(C#N)c(C(F)(F)F)c3)C(=O)C2(C)C)cc1F + Cc1nc(NC(=O)N2CCCC2C(N)=O)sc1-c1ccnc(C(C)(C)C(F)(F)F)c1
pIC50 [1]: < 5.00 | pIC50 [2]: < 5.00 | pIC50 [3]: < 5.00 | pIC50 [4]: < 5.00 | pIC50 [5]: < 5.00 | pIC50 [6]: > 7.50 | viability, T/C [7]: 113% | viability, T/C [8]: 82% | viability, T/C [9]: 97% | viability, T/C [10]: 87.1% | viability, T/C [11]: 91.1% | viability, T/C [12]: 87.9% | viability, T/C [13]: 111% | viability, T/C [14]: 96.5% | viability, T/C [15]: 93.2% | viability, T/C [16]: 88.4% | viability, T/C [17]: 97.7% | viability, T/C [18]: 84.9% | viability, T/C [19]: 91.8% | viability, T/C [20]: 85% | viability, T/C [21]: 94.3% | viability, T/C [22]: 85.9% | viability, T/C [23]: 101% | viability, T/C [24]: 88.5% | viability, T/C [25]: 82.9% | viability, T/C [26]: 96.4% | viability, T/C [27]: 85.1% | viability, T/C [28]: 78.3% | viability, T/C [29]: 91.9% | viability, T/C [30]: 66.8% | viability, T/C [31]: 72% | viability, T/C [32]: 76% | viability, T/C [33]: 72.2% | viability, T/C [34]: 69.5% | viability, T/C [35]: 62.3% | viability, T/C [36]: 58% | viability, T/C [37]: 43.2% | viability, T/C [38]: 41.2% | viability, T/C [39]: 40.5% | viability, T/C [40]: 44.5% | viability, T/C [41]: 33.7% | viability, T/C [42]: 30.4%

CC1(C)CCC(CN2CCN(c3ccc(C(=O)NS(=O)(=O)c4ccc(NCC5CCOCC5)c([N+](=O)[O-])c4)c(Oc4cnc5[nH]ccc5c4)c3)CC2)=C(c2ccc(Cl)cc2)C1 + Cc1nc(NC(=O)N2CCCC2C(N)=O)sc1-c1ccnc(C(C)(C)C(F)(F)F)c1
pIC50 [1]: < 5.00 | pIC50 [2]: < 5.00 | pIC50 [3]: < 5.00 | pIC50 [4]: < 5.00 | pIC50 [5]: < 5.00 | pIC50 [6]: > 7.50 | viability, T/C [7]: 106% | viability, T/C [8]: 94.2% | viability, T/C [9]: 111% | viability, T/C [10]: 99.2% | viability, T/C [11]: 78.1% | viability, T/C [12]: 87.8% | viability, T/C [13]: 118% | viability, T/C [14]: 92.3% | viability, T/C [15]: 92.9% | viability, T/C [16]: 89.6% | viability, T/C [17]: 108% | viability, T/C [18]: 73.3% | viability, T/C [19]: 98.8% | viability, T/C [20]: 101% | viability, T/C [21]: 89.3% | viability, T/C [22]: 94.3% | viability, T/C [23]: 94% | viability, T/C [24]: 80.1% | viability, T/C [25]: 99.4% | viability, T/C [26]: 99.1% | viability, T/C [27]: 102% | viability, T/C [28]: 85.3% | viability, T/C [29]: 76.9% | viability, T/C [30]: 71.2% | viability, T/C [31]: 78.5% | viability, T/C [32]: 65.6% | viability, T/C [33]: 64.2% | viability, T/C [34]: 59.8% | viability, T/C [35]: 64.5% | viability, T/C [36]: 57.1% | viability, T/C [37]: 40.1% | viability, T/C [38]: 41.7% | viability, T/C [39]: 37% | viability, T/C [40]: 31.4% | viability, T/C [41]: 30.2% | viability, T/C [42]: 34.2%
